Results from patent publication US20260315452A1, “PROTEASE INHIBITORS AND USES THEREOF” (priority 2023, published 2026).

Molecular target: SARS-CoV-2 3CLpro (Severe acute respiratory syndrome coronavirus 2, UniProt P0DTD1)
Assay: biochemical
Conditions: inhibition of SARS-CoV-2 3CLpro; 15 nM 3CLpro, 25 μM fluorogenic substrate, 37° C.; read-out: Inhibitory Activity (IC50)

Compound | IC50 [nM]
CNC(=O)c1cc(Br)cc([N+](=O)[O-])c1N[C@@H]1CCCC[C@@H]1NC(=O)c1cncnc1 [Compound 2, N-((1S, 2R)-2-((4-bromo-2-(methylcarbamoyl)-6-nitrophenyl)amino)cyclohexyl) pyrimidine-5-carboxamide] | ≥ 10000
CNC(=O)c1cc(Cl)cc([N+](=O)[O-])c1N[C@H]1CN(C(=O)c2cncc(Cl)c2C)CCC1(F)F [Compound 169, (S)-5-chloro-2-((1-(5-chloro-4-methylnicotinoyl)-4,4-difluoropiperidin-3-yl)amino)-N-methyl-3-nitrobenzamide] | < 100
CNC(=O)c1cc(Br)cc([N+](=O)[O-])c1N1CCC2(CCN(C(=O)c3cncnc3)C2)C1 (stereo not shown) [Compound 21] | ≥ 10000
CNC(=O)c1cc(Br)cc([N+](=O)[O-])c1N[C@H]1CN(C(=O)c2cncc3ccccc23)CC[C@H]1C [Compound 141, 5-bromo-2-(((3R, 4R)-1-(isoquinoline-4-carbonyl)-4-methylpiperidin-3-yl)amino)-N-methyl-3-nitrobenzamide] | 100 to 1000
CNC(=O)c1cc(Br)cc(S(C)(=O)=O)c1N[C@@H]1CCCC[C@@H]1NC(=O)c1cncc2ccccc12 [Compound 57, N-((1S,2R)-2-((4-bromo-2-(methylcarbamoyl)-6-(methylsulfonyl)phenyl)amino)cyclohexyl) isoquinoline-4-carboxamide] | ≥ 10000
O=C(N[C@H]1CCOC1)c1cc(Cl)cc(C(F)(F)F)c1N[C@H]1CN(C(=O)c2cncc3ccccc23)CCC1(F)F [Compound 165, 5-chloro-2-(((S)-4,4-difluoro-1-(isoquinoline-4-carbonyl)piperidin-3-yl)amino)-N-((S)-tetrahydrofuran-3-yl)-3-(trifluoromethyl)benzamide] | < 100
COc1cncc(C(=O)N2CCC3(CCN(c4c(C(=O)NC5CC(F)(F)C5)cc(Br)cc4[N+](=O)[O-])C3)C2)c1 (stereo not shown) [Compound 23, 5-bromo-N-(3,3-difluorocyclobutyl)-2-(7-(5-methoxynicotinoyl)-2,7-diazaspiro[4.4]nonan-2-yl)-3-nitrobenzamide] | 1000 to 10000
O=C(c1cc(Br)cc(C(F)(F)F)c1N[C@H]1CN(C(=O)c2cncc3cccnc23)CCC1(F)F)N1CC(O)C1 [Compound 110, (S)-(5-bromo-2-((4,4-difluoro-1-(1,6-naphthyridine-8-carbonyl)piperidin-3-yl)amino)-3-(trifluoromethyl)phenyl)(3-hydroxyazetidin-1-yl)methanone] | < 100
C[C@@H](NC(=O)c1cc(Br)cc([N+](=O)[O-])c1N1CCC2(CN(C(=O)c3cncc4ccccc34)CC2(F)F)C1)C(F)(F)F (stereo partly drawn) [Compound 78, 5-bromo-2-(9,9-difluoro-7-(isoquinoline-4-carbonyl)-2,7-diazaspiro[4. 4]nonan-2-yl)-3-nitro-N-((R)-1,1,1-trifluoropropan-2-yl)benzamide] | < 100
CNC(=O)c1cc(Br)cc([N+](=O)[O-])c1N[C@H]1CN(C(=O)c2cncc3ccccc23)C[C@H]1F [Compound 166, 5-bromo-2-[[(3S,4R)-4-fluoro-1-(isoquinoline-4-carbonyl)pyrrolidin-3-yl]amino]-N-methyl-3-nitro-benzamide] | < 100
O=C(c1cc(Br)cc(C(F)(F)F)c1N[C@H]1CN(C(=O)c2cncc3ccccc23)CCC1(F)F)N1CC(O)C1 [Compound 173, (S)-(5-bromo-2-((4,4-difluoro-1-(isoquinoline-4-carbonyl)piperidin-3-yl)amino)-3-(trifluoromethyl)phenyl)(3-hydroxyazetidin-1-yl)methanone] | < 100
CNC(=O)c1cc(Br)cc([N+](=O)[O-])c1NC(C(C)C)C1CN(C(=O)c2cncnc2)C1 (stereo not shown) [Compound 71, 5-bromo-N-methyl-2-((2-methyl-1-(1-(pyrimidine-5-carbonyl)azetidin-3-yl)propyl)amino)-3-nitrobenzamide] | 1000 to 10000
O=C(N[C@@H]1CCOC1)c1cc(Br)cc(C(F)(F)F)c1N[C@H]1CN(C(=O)c2cncc3ccccc23)CCC1(F)F [Compound 182, 5-bromo-2-(((S)-4,4-difluoro-1-(isoquinoline-4-carbonyl)piperidin-3-yl)amino)-N-((R)-tetrahydrofuran-3-yl)-3-(trifluoromethyl)benzamide] | < 100
O=C(NC1CC(F)(F)C1)c1cc(Br)cc([N+](=O)[O-])c1N1CCC2(CCN(C(=O)c3cncc(C(F)(F)F)c3)C2)C1 (stereo not shown) [Compound 22, 5-bromo-N-(3,3-difluorocyclobutyl)-3-nitro-2-(7-(5-(trifluoromethyl)nicotinoyl)-2,7-diazaspiro[4.4]nonan-2-yl)benzamide] | 1000 to 10000
CNC(=O)c1cc(Br)cc([N+](=O)[O-])c1N[C@H]1CN(C(=O)c2cncc(-n3cccn3)c2)CCC1(F)F [Compound 39, (S)-2-((1-(5-(1H-pyrazol-1-yl)nicotinoyl)-4,4-difluoropiperidin-3-yl)amino)-5-bromo-N-methyl-3-nitrobenzamide] | 100 to 1000
O=C(c1cc(Br)cc([N+](=O)[O-])c1N[C@H]1CN(C(=O)c2cncc3ccccc23)CC1(F)F)N1CC(F)(F)C1 [Compound 162, (S)-(5-bromo-2-((4,4-difluoro-1-(isoquinoline-4-carbonyl)pyrrolidin-3-yl)amino)-3-nitrophenyl)(3,3-difluoroazetidin-1-yl)methanone] | < 100
CNC(=O)c1cc(Br)cc([N+](=O)[O-])c1NC(C(C)C)C1CN(C(=O)c2cncc3ccccc23)C1 (stereo in doubt) [Compound 15, (R)-5-bromo-2-((1-(1-(isoquinoline-4-carbonyl)azetidin-3-yl)-2-methylpropyl)amino)-N-methyl-3-nitrobenzamide] | ≥ 10000
CNC(=O)c1cc(Br)cc([N+](=O)[O-])c1N[C@@H]1CCCC[C@@H]1NC(=O)c1cncc(OC)c1 [Compound 4, N-((1S, 2R)-2-((4-bromo-2-(methylcarbamoyl)-6-nitrophenyl)amino)cyclohexyl)-5-methoxynicotinamide] | 1000 to 10000
CNC(=O)c1cc(Br)cc([N+](=O)[O-])c1O[C@@H]1CCCC[C@@H]1NC(=O)c1cncc2ccccc12 [Compound 102, N-[(1S,2R)-2-[4-bromo-2-(methylcarbamoyl)-6-nitro-phenoxy]cyclohexyl]isoquinoline-4-carboxamide] | < 100
CNC(=O)c1cc(Cl)cc([N+](=O)[O-])c1N[C@H]1CN(C(=O)c2cncc3cccc(O)c23)CCC1(F)F [Compound 174, (S)-5-chloro-2-((4,4-difluoro-1-(5-hydroxyisoquinoline-4-carbonyl)piperidin-3-yl)amino)-N-methyl-3-nitrobenzamide] | < 100
C[C@@H](NC(=O)c1cc(Br)cc([N+](=O)[O-])c1N[C@@H]1COCC[C@@H]1NC(=O)c1cncc2ccccc12)C(F)(F)F [Compound 136, N-((3S, 4S)-3-((4-bromo-2-nitro-6-(((R)-1,1,1-trifluoropropan-2-yl)carbamoyl)phenyl)amino)tetrahydro-2H-pyran-4-yl)isoquinoline-4-carboxamide] | 100 to 1000
CNC(=O)c1cc(Br)cc([N+](=O)[O-])c1N[C@H]1CN(C(=O)c2cnc3ccccn23)CCC1(F)F [Compound 101, (S)-5-bromo-2-((4,4-difluoro-1-(imidazo[1,2-a]pyridine-3-carbonyl)piperidin-3-yl)amino)-N-methyl-3-nitrobenzamide] | < 100
